Key:
[1] = test system: NCI/ADR-RES drug resistant ovarian cancer xenografts; experiment: Efficacy in NCI/ADR-RES xenografts; format: in vivo, mouse; settings: doxorubicin 2.0 mg/kg iv, terminated after the third dose
[2] = test system: NCI/ADR-RES ovarian cancer cell; settings: overexpresses p-gp; cited from earlier work
[3] = aqueous buffer; cited from earlier work

Compound	body weight loss [1]	effectiveness in drug-resistant cells [2]	half-life of hydrolysis to dox [3] [min]
COc1cccc2c1C(=O)c1c(O)c3c(c(O)c1C2=O)C[C@@](O)(C(=O)CO)C[C@@H]3O[C@H]1C[C@H](N)[C@H](O)[C@H](C)O1 [dox, Doxorubicin]	more than 20%	not effective	
COc1cccc2c1C(=O)c1c(O)c3c(c(O)c1C2=O)C[C@@](O)(C(=O)CO)C[C@@H]3O[C@H]1C[C@@H]2NCO[C@@H]2[C@H](C)O1 [doxaz, Doxazolidine]		effective	3
CC(=O)O[C@H]1C(=O)[C@@]2(C)[C@H]([C@H](OC(=O)c3ccccc3)[C@]3(O)C[C@H](OC(=O)[C@H](O)[C@@H](NC(=O)c4ccccc4)c4ccccc4)C(C)=C1C3(C)C)[C@]1(OC(C)=O)CO[C@@H]1C[C@@H]2O [paclitaxel]		not effective	
